50 compounds from patent US7807703B2, “Substituted aryl ketones” (Bayer CropScience AG, priority 2002, dated 2010) can be followed below.

A short description of the first data set: log P determination by reversed-phase HPLC (EEC Directive 79/831 Annex V.A8; acidic or neutral mobile phase). The format is physicochemical. The settings on record: HPLC reversed-phase C18, 43° C., acidic range: 0.1% aqueous phosphoric acid, acetonitrile (marked a)). How it is done: The log P values given in the table were determined in accordance with EEC Directive 79/831 Annex V.A8 by HPLC (High Performance Liquid Chromatography) using a reversed-phase column (C 18). Temperature: 43° C.
(a) Mobile phases for the determination in the acidic range: 0.1% aqueous phosphoric acid, acetonitrile; linear gradient from 10% acetonitrile to 90% acetonitrile—the corresponding measurement results are marked a) in Table 1.
(b) Mobile phases for the determination in the neutral range: 0.01 molar aqueous phosphate buffer solution, acetonitrile; linear gradient from 10% acetonitrile to 90% acetonitrile—the corresponding measurement results are marked b) in Table 1.
As for `CS(=O)(=O)c1ccc(C(=O)C2C(=O)CCCC2=O)c(Cl)c1CNOCc1ccccc1` [Example 199], the logP entry was “(I-2) logP = 3.04^a)”.

The same data set, now with this note: HPLC reversed-phase C18, 43° C.; acidic range: 0.1% aqueous phosphoric acid, acetonitrile gradient (marked a)).
Consider `CCONCc1c(Cl)ccc(C(=O)C2C(=O)CCCC2=O)c1Cl` [Example 133], for which the logP result is on record as “logP = 2.75^a)”.
For the compound `CCn1ncc(C(=O)c2ccc(Cl)c(OCCNS(=O)(=O)CCl)c2Cl)c1O` [Example 8], the logP entry is recorded as “logP = 2.05^a)”.
The same measure, in the same setting: for `CCONCc1c(Cl)ccc(C(=O)c2cnn(CC)c2O)c1Cl` [Example 134] the value was “logP = 2.07^a)”.

The data set is the same for the next values; noted with them: HPLC, reversed-phase C18, 43° C.; acidic range a): 0.1% aqueous phosphoric acid, acetonitrile, linear gradient 10% to 90% acetonitrile.
As to `CCn1ncc(C(=O)c2ccc(Cl)c(OCCNS(C)(=O)=O)c2Cl)c1O` [Example 354], the logP result is recorded as “logP = 1.54^a)”.
Same read-out and setting: for `CC(C)ON(Cc1c(S(C)(=O)=O)ccc(C(=O)c2cnn(C)c2O)c1Cl)C(C)C` [Example 400] the value was “logP = 2.81^a)”; for `CCn1ncc(C(=O)c2ccc(S(C)(=O)=O)c(CNOC3CCCC3)c2Cl)c1O` [Example 422], “(I-2) logP = 2.31^a)”; for `CCN(Cc1c(S(C)(=O)=O)ccc(C(=O)c2cnn(CC)c2O)c1Cl)S(C)(=O)=O` [Example 468], “logP = 1.48^a)”.
On the same count and under the same terms, for `CCON(Cc1c(S(C)(=O)=O)ccc(C(=O)c2cnn(CC)c2O)c1Cl)C(C)C` [Example 392] the value was “logP = 2.89^a)”; for `CON(Cc1c(S(C)(=O)=O)ccc(C(=O)C2C(=O)CCCC2=O)c1Cl)CC1CCOC1` (centres unmarked) [Example 408], “(I-2) logP = 2.50^a)”.
As for `CON(Cc1c(S(C)(=O)=O)ccc(C(=O)c2cnn(C)c2O)c1Cl)C1CCCC1` [Example 378], the logP result is reported as “(I-2) logP = 2.59^a)”.
On to `CN(Cc1c(S(C)(=O)=O)ccc(C(=O)c2cnn(C)c2O)c1Cl)OCC1CCOC1` (centres unmarked) [Example 437], for which the logP result is given as “(I-2) logP = 1.73^a)”.
The same measure, in the same setting: the value for `COCCON(C)Cc1c(S(C)(=O)=O)ccc(C(=O)c2cnn(C)c2O)c1Cl` [Example 433] was “(I-2) logP = 1.51^a)”; that for `COc1c(C(=O)C2C(=O)CCCC2=O)ccc(Cl)c1CN(C)S(C)(=O)=O` [Example 472] was “logP = 2.20^a)”.
With `COc1c(C(=O)C2C(=O)CC(C)CC2=O)ccc(Cl)c1CN(C)OC` (centres unmarked) [Example 482], the logP result is “(I-2) logP = 3.09^a)”.
Consider `Cn1ncc(C(=O)c2ccc(Cl)c(OCCNS(C)(=O)=O)c2Cl)c1O` [Example 353], for which the logP result is recorded as “logP = 1.36^a)”.
Take `CN(Cc1c(S(C)(=O)=O)ccc(C(=O)C2C(=O)CCCC2=O)c1Cl)OCC1CCOC1` (centres unmarked) [Example 434]: the logP entry is “(I-2) logP = 2.67^a)”.
On the same count and under the same terms, for `CCn1ncc(C(=O)c2ccc(S(C)(=O)=O)c(CN(CC3CCOC3)OC3CCCC3)c2Cl)c1O` (centres unmarked) [Example 417] the value was “(I-2) logP = 2.76^a)”; for `CCS(=O)(=O)NCCOc1c(Cl)ccc(C(=O)C2C(=O)CCCC2=O)c1C` [Example 359], “logP = 2.33^a)”; for `CCN(Cc1c(Cl)ccc(C(=O)C2C(=O)CCCC2=O)c1OC)S(C)(=O)=O` [Example 464], “logP = 2.47^a)”.
For the compound `CCN(Cc1c(Cl)ccc(C(=O)c2cnn(CC)c2O)c1OC)S(C)(=O)=O` [Example 462], the logP entry is given as “logP = 2.12^a)”.
Consider `CCON(CC)Cc1c(S(C)(=O)=O)ccc(C(=O)c2cnn(CC)c2O)c1Cl` [Example 451], for which the logP entry is listed as “logP = 2.44^a)”.
Consider `CC(C)ON(C)Cc1c(S(C)(=O)=O)ccc(C(=O)C2C(=O)CCCC2=O)c1Cl` [Example 393], for which the logP entry was “logP = 3.14^a)”.
The same measure, in the same setting: for `COCCON(C)Cc1c(S(C)(=O)=O)ccc(C(=O)C2C(=O)CCC(C)(C)C2=O)c1Cl` (centres unmarked) [Example 432] the value was “(I-2) logP = 3.22^a)”.
Turning to `CN(Cc1c(S(C)(=O)=O)ccc(C(=O)c2cnn(C)c2O)c1Cl)OCC1CCCCO1` (centres unmarked) [Example 440], the logP entry is on record as “(I-2) logP = 2.01^a)”.
In the case of `CS(=O)(=O)c1ccc(C(=O)C2C(=O)CCCC2=O)c(Cl)c1CN(CC1CCOC1)OC1CCCC1` (centres unmarked) [Example 426], the logP entry is on record as “(I-2) logP = 3.53^a)”.
In the case of `CON(Cc1ccoc1)Cc1c(S(C)(=O)=O)ccc(C(=O)C2C(=O)CCCC2=O)c1Cl` [Example 428], the logP entry is “(I-2) logP = 3.10^a)”.
For `CN(Cc1c(S(C)(=O)=O)ccc(C(=O)C2C(=O)CCC(C)(C)C2=O)c1Cl)OCC1CCOC1` (centres unmarked) [Example 436], the logP result was “(I-2) logP = 3.49^a)”.
Take `CCN(Cc1c(S(C)(=O)=O)ccc(C(=O)C2C(=O)CCCC2=O)c1Cl)S(C)(=O)=O` [Example 467]: the logP entry is listed as “logP = 2.02^a)”.

The data set is the same for the next values; noted with them: HPLC, reversed-phase C 18, 43° C.; acidic range: 0.1% aqueous phosphoric acid, acetonitrile (marked a) or acidic).
Consider `COC(=O)c1ccc(Cl)c(OCCNS(C)(=O)=O)c1C` [VIII-26], for which the “log P (acidic)” value is listed as “logPacidic = 2.14”.
For the compound `CCN(CC)C(=O)CN(Cc1c(S(C)(=O)=O)ccc(C(=O)OC)c1Cl)OC` [VIII-36], the “log P (acidic)” value is reported as “logPacidic = 2.28”.
Still for that read-out and setting: the value for `COC(=O)c1ccc(S(C)(=O)=O)c(CN(OC)C2CCCC2)c1Cl` [VIII-38] was “logPacidic = 3.67”; that for `COC(=O)c1ccc(S(C)(=O)=O)c(CNOCCOc2ccccc2)c1Cl` [VIII-62] was “logPacidic = 2.93”; that for `COC(=O)c1ccc(S(C)(=O)=O)c(CN(C)S(C)(=O)=O)c1Cl` [VIII-69] was “logPacidic = 1.65”.
Consider `CCN(Cc1c(S(C)(=O)=O)ccc(C(=O)OC)c1Cl)OC` [VIII-23], for which the “log P (acidic)” value is reported as “logPacidic = 2.74”.
Take `COC(=O)c1ccc(S(C)(=O)=O)c(CN(C)OC(C)C)c1Cl` [VIII-45]: the “log P (acidic)” value is “logPacicic = 2.97”.
On to `CCN(Cc1c(Cl)ccc(C(=O)OC)c1OC)OC` [VIII-67], for which the “log P (acidic)” value is “logPacidic = 3.43”.
Consider `COC(=O)c1ccc(S(C)(=O)=O)c(CN(C)OCCOc2ccccc2)c1Cl` [VIII-63], for which the “log P (acidic)” value is reported as “logPacidic = 3.37”.
On to `CCS(=O)(=O)NCCOc1c(S(C)(=O)=O)ccc(C(=O)OC)c1Cl` [VIII-31], for which the “log P (acidic)” value was “logPacidic = 1.75”.
As for `COC(=O)c1ccc(S(C)(=O)=O)c(CN(C)OC)c1Cl` [VIII-22], the “log P (acidic)” value is listed as “logPacidic = 2.31”.
As to `COCCON(C)Cc1c(S(C)(=O)=O)ccc(C(=O)OC)c1Cl` [VIII-61], the “log P (acidic)” value is given as “logPacidic = 2.26”.
Consider `COC(=O)c1ccc(S(C)(=O)=O)c(CN(OC)C(C)C2CC2)c1Cl` (centres unmarked) [VIII-37], for which the “log P (acidic)” value was “logPacidic = 3.58”.
`CCON(Cc1c(S(C)(=O)=O)ccc(C(=O)OC)c1Cl)C(C)C` [VIII-44]: the “log P (acidic)” value is “logPacidic = 3.52”.

The data set is the same for the next values; noted with them: HPLC, reversed-phase C 18, 43° C.; mobile phase range not marked.
For `CCCS(=O)(=O)NCCOc1c(Cl)ccc(C(=O)OCC)c1Cl` [VIII-19], the “log P” value is given as “logP = 2.92”.
Consider `CCONCc1c(Cl)ccc(C(=O)OC)c1OC` [VIII-13], for which the “log P” value was “logP = 2.27”.
With `CON(Cc1ccccc1)Cc1c(S(C)(=O)=O)ccc(C(=O)c2cnn(C)c2O)c1Cl` [Example 335], the “logP (HPLC, mobile phase not marked)” value is on record as 2.48.
For the compound `CCn1ncc(C(=O)c2ccc(S(C)(=O)=O)c(CNOCc3ccccc3)c2Cl)c1O` [Example 349], the “logP (HPLC, mobile phase not marked)” value came to 2.31.
For `CCOC(=O)c1ccc(Cl)c(OCCNS(=O)(=O)CCl)c1Cl` [VIII-16], the “log P” value is “logP = 2.80”.

Staying with this data set, now noted: reversed-phase C18 HPLC column; HPLC, reversed-phase C 18, 43° C.; mobile phase range not marked; read-out: log P.
On to `CCOC(=O)c1ccc(Cl)c(OCCNS(C)(=O)=O)c1Cl` [VIII-2, ethyl 2,4-dichloro-3-(2-methylsulphonylaminoethoxy)benzoate], for which the chromatographic logP amounted to 2.35.
With `COC(=O)c1ccc(Cl)c(CN(C)OC)c1Cl` [VIII-1, methyl 2,4-dichloro-3-(N-methoxy-N-methylaminomethyl)benzoate], the chromatographic logP amounted to 3.08.
